Results from US4407799A, “2-Substituted-phenyl-1,3-perhydrothiazine-4-one” (priority 1980, dated 1983).

Tests used:
[1] = system: duodenal peptic ulcer due to acetic acid; assay: Effect on peptic ulcer due to acetic acid (duodenal ulcer); format: in vivo, male rats; conditions: 100 mg/kg, oral, rats; for Ulcer coefficient: 3 times a day for 10 days from third day; for Rate of suppression of ulcer: 3 times a day for 10 days, versus control
Source text: The inventors of the present invention, taking into account of these situations, added to the above-mentioned method of evaluation the effect of accelerating the cure of the peptic ulcer by orally administering the present compound and a commercialized anti-peptic ulcer medicine, respectively to rats to which duodenal peptic ulcer due to acetic acid (refer to Okabe, 1971) considered to be most closely resembling to human peptic ulcer has been artificially formed.
Following the method of Okabe et al (refer to Amer. J. Dig. Dis., 16, […]), 6 groups (15 animals per group) of male rats weighing 240 to 260 g were subjected to laparotomy under ether anesthesia in which a metal circular frame was placed on the serosa at a distance of 5 to 7 mm from the duodenal pylorus, 0.06 ml of glacial acetic acid was poured into the frame. After 30 seconds, the liquid containing the acetic acid was removed and then the frame was removed. The test compound suspended in an aqueous 0.5% solution of carboxymethylcellulose was orally administered to the rat 3 times a day from the third day of the operation for consecutive 10 days. To the control group, only the solution of carboxymethylcellulose was administered. After the administration was over, the rats were sacrificed with ether, and their duodenum was removed to observe under a microscope for anatomy. The length and width of the thus-formed ulcer were measured and their product (expressed with mm^2) was recorded as the ulcer coefficient.
By the way, the above-mentioned experimental model has been highly evaluated internationally because the thus-formed ulcer is scarcely curable in nature and the histopathological change of the ulcer lesion closely resembles to that of human chronic ulcer as compared to the method of cautery-ulcer (refer to Skoryna, 1958) and the method of crumping-cortisone (refer to Umehara, 1965).

[2] = system: peptic ulcer due to pyloric ligation; assay: Effect on peptic ulcer due to pyloric ligation; format: in vivo, male rats; conditions: 100 mg/kg, intraperitoneal, rats; for Ulcer coefficient: just after pyloric ligation, 15 hours; for Rate of suppression of ulcer: pyloric ligation, versus control
Method: Six groups (10 animals per group) of male rats weighing 180 to 200 g were subjected to ligation of their pyloruses under ether-anesthesia after fasting for 48 hours according to the method of Shay et al. (refer to Gastroenterology, 5, page 43 (1945)).
Just after subjecting to ligation, each of the present compound suspended in an aqueous physiological saline solution was intraperitoneally administered to each rat, the control being injected with an aqueous physiological saline solution. Then, after 15 hours of fasting without taking water, the rats were sacrificed with ether and their stomachs were removed to examine under a microscope for anatomy. The length and width of the thus-formed ulcer in the stomach were determined and expressed by the product (mm^2), and the total sum of the products was represented as the ulcer coefficient.

[3] = Acute toxicity test, oral; set-up: species or system Female ICR-mice; conditions: mouse, in vivo, mortality observed for a week, Litchfield-Wilcoxon
Method: Female ICR-mice of body weight of 20 to 24 g, 5 weeks after birth were used.
Eight animal per group were kept in a transparent polycage at room temperature of 23°±1° C., and RH of 60 to 70%.
After minutely pulverizing each one of the present compounds, the pulverized compound was suspended in an aqueous 5% sodium carboxymethylcellulose solution containing 20% of Tween-80. The aqueous suspension was forcibly orally administered by a metal stomach tube, the dose rate having been adjusted by changing the concentration of the present compound in the aqueous suspension.
In some mortal cases, the rat's spontaneous movement was lowered with the reduction of general tension and the rats died as they were.

peptic ulcer = conditions: cited from earlier work

Row | Structure (SMILES) | Ulcer coefficient [1] | Rate of suppression of ulcer [1] | Ulcer coefficient [2] | Rate of suppression of ulcer [2] | LD50 at 168 h [3] | Side effects (peptic ulcer) | Accelerating effect on ulcer-curing (peptic ulcer; commercialized medicine, background)
1 | COc1cc(C2NC(=O)CCS2)cc(OC)c1OC (centres unmarked) [Compound 1, 2-(3,4,5-trimethoxyphenyl)-1,3-perhydrothiazine-4-one] | 2.5 mm^2 | 67.1% | 9.3 mm^2 | 74.9 | 5400 mg/kg |  | 
2 | COc1ccc(C2NC(=O)CCS2)cc1OC (centres unmarked) [Compound 2, 2-(3,4-dimethoxyphenyl)-1,3-perhydrothiazine-4-one] | 2.0 mm^2 | 73.6% | 1.9 mm^2 | 94.3 | > 8000 mg/kg |  | 
3 | COc1ccccc1C1NC(=O)CCS1 (centres unmarked) [Compound 3, 2-(2-methoxyphenyl)-1,3-perhydrothiazine-4-one] | 1.5 mm^2 | 80.2% | 2.4 mm^2 | 93.5 | > 8000 mg/kg |  | 
4 | COc1ccc(C2NC(=O)CCS2)cc1 (centres unmarked) [Compound 4, 2-(4-methoxyphenyl)-1,3-perhydrothiazine-4-one] | 1.3 mm^2 | 82.8% | 2.0 mm^2 | 94.5 | > 8000 mg/kg |  | 
5 | CC(C)=CCCC(C)=CCCC(C)=CCCC(=O)OCC=C(C)CCC=C(C)C [Positive control, 3,7dimethyl-2,6-octadienyl-5,9,13-trimethyl-4,8,12-tetradecatrienoate, reference compound] | 6.1 mm^2 | 20.0% | 32.5 mm^2 | 12.2 |  |  | 
6 | CC1(C)[C@@H](OC(=O)CCC(=O)O)CC[C@]2(C)[C@H]3C(=O)C=C4[C@@H]5C[C@@](C)(C(=O)O)CC[C@]5(C)CC[C@@]4(C)[C@]3(C)CC[C@@H]12 [carbenoxolone] |  |  |  |  |  | aldosterone-like side effects to cause hypertension and weakening of muscular function | excellent accelerating effect on the ulcer-curing
